Results on three molecules are retold here after patent US20150338397A1, “Use of Bufodienolides in Diagnosing and Treating Essential Hypertension” (priority 2014, published 2015).

Test [1] relates to volume expansion induced hypertensive rats. As to the kind of experiment: Systolic blood pressure in saline volume expansion induced hypertensive rats (NDS). The class given is in vivo. Particulars: NDS rats given resibufogenin (NDSR) vs NDS; FIG. 1. From the text:
(§1) FIG. 1. Mean systolic blood pressure (BP) values in sham (SHM) animals, angiotensin-infused rats (ANG), angiotensin infused animals given resibufogenin (ANGR), normal rats rendered hypertensive by the infusion of saline (volume expansion induced hypertensive rats) (NDS), NDS rats given resibufogenin (NDSR).

The next test deals with angiotensin-infused rats. As to the kind of experiment: Systolic blood pressure in angiotensin-infused rats (ANG). It counts as in vivo. The conditions noted are these: FIG. 1.
Excerpt: as §1

The subject of test [2] is volume expansion-mediated hypertension. The conditions noted are these: experimental animals; cited from earlier work.
The subject of test [3] is animals subjected to angiotensin excess. The conditions noted are these: cited from earlier work.
Test [4] deals with rodent brain contusion model. Particulars: given 1 hour after the insult; cited from earlier work.
Test [5] relates to preeclampsia in animal models. The conditions noted are these: cited from earlier work.
For test [6] the following is noted: in vitro; cited from earlier work.

Regarding `C[C@]12CC[C@H](O)C[C@H]1CC[C@@H]1[C@@H]2CC[C@]2(C)[C@@H](c3ccc(=O)oc3)C[C@H]3O[C@]132` [RBG, epoxy-3β-hydroxy-5β-bufa-20,22-dienolide], the “Mean systolic blood pressure (BP)” value in test [1] is given as “reduced blood pressure”; in the test with angiotensin-infused rats (angiotensin infused animals given resibufogenin (ANGR) vs ANG) it was “only in the volume expanded animals”. The Blood pressure elevations result in test [2] was “resolves blood pressure elevations”. The Elevated blood pressure result in test [3] is given as “does not lower elevated blood pressure”. Besides, the Tissue injury entry in test [4] is listed as “amelioration of tissue injury”. For the same molecule, in test [5], the Prevention of preeclampsia entry was “prevents preeclampsia”.
For `C[C@]12CC[C@H](O)C[C@@]1(O)CC[C@@H]1[C@@H]2CC[C@]2(C)[C@@H](c3ccc(=O)oc3)C[C@H]3O[C@]132` [MBG, marinobufagenin], the Vasoconstrictor action result in test [6] was “acts in vitro as a vasoconstrictor”.
Take “angiotensin (DRVYIHPF; Angiotensin-2; UniProt P01019 25-32, looked up) [the major vasoconstrictor in the human body; infused to render rats hypertensive]”: in the test with angiotensin-infused rats (angiotensin-infused rats (ANG) vs sham (SHM)), the “Mean systolic blood pressure (BP), effect of angiotensin infusion” value is given as “raised blood pressure equivalently”.
